From patent US5279812A, “Radiolabeled anticoagulant peptides” (Merrell Dow Pharmaceuticals Inc., priority 1991, dated 1994) come the findings set out here.

The experiment has as its target T1, Bovine thrombin (Bos taurus, UniProt P00735).
T1 construct: Bovine thrombin was titrated to an appropriate concentration
The experiment can be described thus: thrombin induced fibrin clot inhibition assay. It counts as biochemical. As to conditions: read-out: In vitro potency.

Each structure is given as a SMILES string.

Procedure: Samples were tested in a thrombin induced fibrin clot inhibition assay. All the solutions of the assay were made with an assay buffer containing 0.12 M sodium chloride, 0.01 M sodium phosphate, 0.01% sodium azide and 0.1% bovine serum albumin, pH 7.4. […] This solution of thrombin (50 ul; 0.2 pmol) was added to the wells of a microtiter plate containing 50 ul of a solution of the synthetic peptide being tested. […] The turbidity of the solution was monitored by the autoreader at 5 min intervals. […] For the assays using human or bovine thrombin, thrombin was titrated to concentrations that gave the fibrin clot at the same rate over a 30 min period.

`CC[C@H](C)[C@H](NC(=O)[C@@H]1CCCN1C(=O)[C@H](CCC(=O)O)NC(=O)[C@H](Cc1cc(I)c(O)c(I)c1)NC(=O)CCC(=O)O)C(=O)N1CCC[C@H]1C(=O)N[C@@H](CCC(=O)O)C(=O)N[C@@H](CCC(=O)O)C(=O)N[C@@H](C)C(=O)N[C@@H](CC1CCCCC1)C(=O)N[C@H](CCC(=O)O)C(=O)O` [Example 1]: the IC50 is under 25 µM.
